Holding throughout (format): cell-based
The subject of test [1] is Staphylococcus aureus ATCC 6538S. Kind of test: Minimum inhibitory concentration. To be noted: for MIC: ATCC6538S.
Test [2] relates to Malassezia furfur MTCC 1374. Kind of test: Minimum inhibitory concentration.
Test [3] deals with Candida albicans ATCC 10231. Description: Minimum inhibitory concentration.
The test system of test [4] is Propionibacterium acnes MTCC 1951. Description: Minimum inhibitory concentration. The note with it: for MIC: Cutibacterium acnes.
Test [5] has as its system Escherichia coli ATCC 10142. Kind of test: Minimum inhibitory concentration.
For test [6], the system named is Aspergillus niger ATCC 16404. Kind of test: Minimum inhibitory concentration.
Test [7] deals with Bacillus subtilis ATCC 9372. Description: microbe, parasite or virus in culture. To be noted: for MIC: ATCC9372.
For test [8], the system named is Pseudomonas aeruginosa Immuno type IV. Description: Minimum inhibitory concentration.
Test [9] deals with all types of microbes (Gram positive, Gram negative bacteria, yeast and mould; the chosen eight organisms). Description: Minimum inhibitory concentration, whole panel.
The mark [10] stands for this setting: Bacillus subtilis ATCC 9372, read-out: MINIMUM INHIBITORY CONCENTRATION
Where [11] appears, read: in Preservative Blend No 1 (10:10:80), Bacillus subtilis, read-out: Concentration of individual component at MIC of Preservative Blend No 1.

Here are results for three compounds from patent publication US20130101530A1, “ANTIMICROBIAL PRESERVATIVE COMPOSITIONS FOR PERSONAL CARE PRODUCTS” (GALAXY SURFACTANTS LTD., priority 2011, published 2013).

≈ marks a conversion by molar mass, not a printed value. Like-named read-outs stand apart in the source and are kept apart here.

`CCCCCCCC(=O)NCC(=O)O` [Octanoyl Glycine, N-Octanoyl glycine]: the MIC in [1] (Staphylococcus aureus ATCC 6538S, read-out: MINIMUM INHIBITORY CONCENTRATION) was found to be 3000 mg/L (≈ 14.9 mM); in [1] (in Preservative Blend No 1 (10:10:80), Staphylococcus aureus, read-out: Concentration of individual component at MIC of Preservative Blend No 1), 200 mg/L; in test [2] (MTCC1374, Malassezia furfur MTCC 1374, read-out: MINIMUM INHIBITORY CONCENTRATION), 3000 mg/L (≈ 14.9 mM); in test [2] (MTCC1374, in Preservative Blend No 1 (10:10:80), Malassezia furfur, read-out: Concentration of individual component at MIC of Preservative Blend No 1), 400 mg/L; in test [3] (ATCC10231, Candida albicans ATCC 10231, read-out: MINIMUM INHIBITORY CONCENTRATION) it was 4000 mg/L (≈ 19.9 mM); in test [3] (ATCC10231, in Preservative Blend No 1 (10:10:80), Candida albicans, read-out: Concentration of individual component at MIC of Preservative Blend No 1) it was 300 mg/L. Further, the MIC came out at 3000 mg/L (≈ 14.9 mM) in test [4] (MTCC1951, Propionibacterium acnes MTCC 1951, read-out: MINIMUM INHIBITORY CONCENTRATION); 300 mg/L in [4] (MTCC1951, in Preservative Blend No 1 (10:10:80), Propionibacterium acnes, read-out: Concentration of individual component at MIC of Preservative Blend No 1); 3000 mg/L (≈ 14.9 mM) in test [5] (ATCC10142, Escherichia coli ATCC 10142, read-out: MINIMUM INHIBITORY CONCENTRATION); 200 mg/L in test [5] (ATCC10142, in Preservative Blend No 1 (10:10:80), Escherichia coli, read-out: Concentration of individual component at MIC of Preservative Blend No 1); 300 mg/L in test [6] (ATCC16404; in Preservative Blend No 1 (10:10:80); Aspergillus niger; read-out: Concentration of individual component at MIC of Preservative Blend No 1); 4000 mg/L (≈ 19.9 mM) in [6] (Aspergillus niger, ATCC16404; read-out: MINIMUM INHIBITORY CONCENTRATION). Besides, the MIC was 3000 mg/L (≈ 14.9 mM) in [7] (setting [10]); 200 mg/L in test [7] (setting [11]); 3000 mg/L (≈ 14.9 mM) in test [8] (Pseudomonas aeruginosa Immuno type IV, read-out: MINIMUM INHIBITORY CONCENTRATION); 200 mg/L in test [8] (in Preservative Blend No 1 (10:10:80), Pseudomonas aeruginosa, read-out: Concentration of individual component at MIC of Preservative Blend No 1).

With `OCCOc1ccccc1` [Phenoxy ethanol, 2-Phenoxy ethanol], the MIC amounted to 1600 mg/L in [1] (Staphylococcus aureus, read-out: Concentration of individual component at MIC of Preservative Blend No 1); 2400 mg/L in [1] (Staphylococcus aureus, read-out: Concentration of individual component at MIC of Preservative Blend No 2); 8500 mg/L (≈ 61.5 mM) in test [1] (Staphylococcus aureus, read-out: MINIMUM INHIBITORY CONCENTRATION); 3200 mg/L in test [2] (Malassezia furfur, MTCC1374, read-out: Concentration of individual component at MIC of Preservative Blend No 1); 3200 mg/L in test [2] (Malassezia furfur, MTCC1374, read-out: Concentration of individual component at MIC of Preservative Blend No 2); 4000 mg/L (≈ 29 mM) in test [2] (Malassezia furfur, MTCC1374, read-out: MINIMUM INHIBITORY CONCENTRATION). For the same compound, the MIC in test [3] (Candida albicans, ATCC10231, read-out: Concentration of individual component at MIC of Preservative Blend No 1) was found to be 2400 mg/L; in test [3] (Candida albicans, ATCC10231, read-out: Concentration of individual component at MIC of Preservative Blend No 2), 1600 mg/L; in test [3] (Candida albicans, ATCC10231, read-out: MINIMUM INHIBITORY CONCENTRATION) it was 6000 mg/L (≈ 43.4 mM); in test [4] (MTCC1951, read-out: Concentration of individual component at MIC of Preservative Blend No 1) it was 2400 mg/L; in test [4] (MTCC1951, read-out: Concentration of individual component at MIC of Preservative Blend No 2), 1600 mg/L; in [4] (MTCC1951, read-out: MINIMUM INHIBITORY CONCENTRATION) it was 4000 mg/L (≈ 29 mM). Further, the MIC came out at 1600 mg/L in test [5] (Escherichia coli, ATCC10142, read-out: Concentration of individual component at MIC of Preservative Blend No 1); 2400 mg/L in [5] (Escherichia coli, ATCC10142, read-out: Concentration of individual component at MIC of Preservative Blend No 2); 6000 mg/L (≈ 43.4 mM) in test [5] (Escherichia coli, ATCC10142, read-out: MINIMUM INHIBITORY CONCENTRATION); 2400 mg/L in [6] (Aspergillus niger, ATCC16404, read-out: Concentration of individual component at MIC of Preservative Blend No 1); 1600 mg/L in [6] (Aspergillus niger, ATCC16404, read-out: Concentration of individual component at MIC of Preservative Blend No 2); 9000 mg/L (≈ 65.1 mM) in test [6] (Aspergillus niger, ATCC16404, read-out: MINIMUM INHIBITORY CONCENTRATION). Further, the MIC worked out at 4000 mg/L (≈ 29 mM) in test [7] (setting [10]); 1600 mg/L in test [7] (setting [11]); 1600 mg/L in [7] (in Preservative Blend No 2 (10:10:80), Bacillus subtilis, read-out: Concentration of individual component at MIC of Preservative Blend No 2); 1600 mg/L in test [8] (Pseudomonas aeruginosa, read-out: Concentration of individual component at MIC of Preservative Blend No 1); 2400 mg/L in test [8] (Pseudomonas aeruginosa, read-out: Concentration of individual component at MIC of Preservative Blend No 2); 4000 mg/L (≈ 29 mM) in test [8] (Pseudomonas aeruginosa, read-out: MINIMUM INHIBITORY CONCENTRATION). Further, the “Activity against yeast and mould” value in test [9] (ingredient alone, Aspergillus and Candida) is on record as “virtually no activity”. Also, in test [9] (ingredient alone, particularly Gram positive), the Activity against bacteria entry is on record as “weak activity”. Also, the “Concentration enough to kill the organism in combination with components [A] and [B]” value in [3] (in Preservative Blend No 1, Candida) is “around 0.25%”; in [6] (in Preservative Blend No 1; Aspergillus), “around 0.25%”.

For the compound `C=CCCCCCCCCC(=O)NCCO` [Undecylenoyl MEA amide, N-undecylenoyl monoethanol amide], the “MINIMUM INHIBITORY CONCENTRATION” value in test [1] (Staphylococcus aureus ATCC 6538S), in [2] (Malassezia furfur MTCC 1374), in [3] (Candida albicans ATCC 10231), in test [4] (Propionibacterium acnes MTCC 1951), in [5] (Escherichia coli ATCC 10142) and in test [6] (Aspergillus niger) was more than 10000 ppm in each case. The “MINIMUM INHIBITORY CONCENTRATION” value in test [7] (Bacillus subtilis ATCC 9372) and in [8] (Pseudomonas aeruginosa Immuno type IV) was more than 10000 ppm each time. For the same compound, the “Concentration of individual component at MIC of Preservative Blend No 1” value in test [1] (in Preservative Blend No 1 (10:10:80), Staphylococcus aureus) was 200 ppm; in [2] (in Preservative Blend No 1 (10:10:80), Malassezia furfur), 400 ppm; in [3] (in Preservative Blend No 1 (10:10:80), Candida albicans) it was 300 ppm; in test [4] (in Preservative Blend No 1 (10:10:80), Propionibacterium acnes), 300 ppm; in test [5] (in Preservative Blend No 1 (10:10:80), Escherichia coli), 200 ppm; in test [6] (in Preservative Blend No 1 (10:10:80); Aspergillus niger) it was 300 ppm. The “Concentration of individual component at MIC of Preservative Blend No 1” value in test [7] (in Preservative Blend No 1 (10:10:80), Bacillus subtilis) came to 200 ppm; in test [8] (in Preservative Blend No 1 (10:10:80), Pseudomonas aeruginosa), 200 ppm. For the same compound, the “Concentration of individual component at MIC of Preservative Blend No 2” value turned out to be 300 ppm in [1] (in Preservative Blend No 2 (10:10:80), Staphylococcus aureus); 400 ppm in test [2] (in Preservative Blend No 2 (10:10:80), Malassezia furfur); 200 ppm in [3] (in Preservative Blend No 2 (10:10:80), Candida albicans); 200 ppm in [4] (in Preservative Blend No 2 (10:10:80), Propionibacterium acnes); 300 ppm in test [5] (in Preservative Blend No 2 (10:10:80), Escherichia coli); 200 ppm in test [6] (in Preservative Blend No 2 (10:10:80); Aspergillus niger). Further, the “Concentration of individual component at MIC of Preservative Blend No 2” value was found to be 200 ppm in [7] (in Preservative Blend No 2 (10:10:80), Bacillus subtilis) and 300 ppm in [8] (in Preservative Blend No 2 (10:10:80), Pseudomonas aeruginosa). For the same compound, in test [9] (ingredient alone, octanoyl glycine tested at neutral pH), the “Concentration needed for activity of the ingredient by itself against the broad range of microbes” value is more than 10000 ppm. Also, the “Antimicrobial activity of the ingredient alone” value in test [9] (up to 1.0% concentration, bacteria, yeast and mould) is on record as “does not exhibit any antimicrobial activity”.
